Results on seven molecules are retold here after ChEMBL document CHEMBL5053537, “Next generation Glucose-1-phosphate thymidylyltransferase (RmlA) inhibitors: An extended SAR study to direct future design” (Bioorg Med Chem, 2021).

Converted amounts (≈) assume the structure as drawn.

As a reminder, the inhibition is the percentage by which the read-out fell short of the control. Higher therefore signals a strong effect. What is called IC50 is the concentration at which inhibition is half-maximal.

The subject of one assay is Pseudomonas aeruginosa. Description: Inhibition of N-terminal His-tagged Pseudomonas aeruginosa RmIA expressed in Escherichia coli BL21 (lambdaDE3) at 10 uM using dTTP and G-1-P as substrates incubated for 30 mins by Biomol green reagent based assay relative to control.
Assay [1] is described as follows: Inhibition of N-terminal His-tagged Pseudomonas aeruginosa RmIA expressed in Escherichia coli BL21 (lambdaDE3) using dTTP and G-1-P as substrates incubated for 30 mins by Biomol green reagent based assay.
The test system of assay [2] is Mycobacterium tuberculosis. Description: Antimycobacterial activity against Mycobacterium tuberculosis assessed as inhibition of bacterial growth. The class given is functional. As to conditions: read-out: MIC100.

`CN(c1c(NCCCn2cc(CN)nn2)n(Cc2ccccc2)c(=O)[nH]c1=O)S(=O)(=O)c1ccccc1`: in the assay with Pseudomonas aeruginosa, the inhibition worked out at 100%.

`CNCCNc1c(N(C)S(=O)(=O)c2ccccc2)c(=O)[nH]c(=O)n1Cc1ccc(Br)cc1` displayed an IC50 in assay [1] of 96 nM.

In turn, `CNCCCNc1c(N(C)S(=O)(=O)c2ccccc2)c(=O)[nH]c(=O)n1Cc1ccc(Br)cc1` showed an inhibition in the assay on Pseudomonas aeruginosa of 100%.

For `CN(c1c(NCCCCN)n(Cc2ccc(Br)cc2)c(=O)[nH]c1=O)S(=O)(=O)c1ccccc1`, the inhibition in the assay with Pseudomonas aeruginosa is 100%.

As for `CN(c1c(NCCCCCN)n(Cc2ccc(Br)cc2)c(=O)[nH]c1=O)S(=O)(=O)c1ccccc1`, in the assay on Pseudomonas aeruginosa, the inhibition came out at 100%.

For `CN(c1c(N)n(Cc2ccccc2)c(=O)[nH]c1=O)S(=O)(=O)c1ccccc1`, the MIC in assay [2] was found to be 100 µg/mL (≈ 259 µM).

In the assay on Pseudomonas aeruginosa, `CN(c1c(N)n(Cc2ccc(Br)cc2)c(=O)[nH]c1=O)S(=O)(=O)c1ccccc1` showed an inhibition of 100%.
